Measurements published in US20260041640A1 (INCYCLIX BIO, LLC, priority 2023, published 2026).
“And” between values parts separate entries of the source, which are not always exact repeats. Equal values may be shown once. Read-outs that look alike come from different tables or passages of the source.

Assay: First-in-human clinical study: plasma and whole blood PK of INX-315 (oral QD, ASD tablet)
Type: in vivo
Parameters: AUC Plasma / AUC Whole Blood: unit not given here
From the text: All INX-315 tablets were taken at approximately the same time(s) each day.
Samples will also be collected pre-dose on Cycle 1 Days 2, 8, 16, and Day 22, and pre-dose on Day 1 of each subsequent cycle.
Standard non-compartmental PK parameters were estimated.
Geometric mean and geometric CV % will be included in the summary statistics.
PK parameters will be summarized descriptively by dosing cohort. AUC and Cmax values will also be presented in scatter plots. Dose proportionality will be assessed for AUC and Cmax using a power model. The 90% CI of the slope for each PK parameter will be estimated from the model and presented in a summary table.
Cohort 1 enrollment of 6 subjects dosed at 100 mg oral QD was completed in October of 2023.
Patients were upgraded to the 200 mg QD dose level and PK/PD plasma parameters were measured (FIG. 18A).
Patients were administered the 200 mg QD and 300 mg QD dose levels and PK/PD plasma parameters were measured.

[1] = Cohort 1 (100 mg QD), Day 1, individual subjects
[2] = Cohort 1 (100 mg QD), Day 15, individual subjects
[3] = Cohort 2 (200 mg QD), Day 1, individual subjects
[4] = Cohort 2 (200 mg QD), Day 15, individual subjects
[5] = Cohort 3 (300 mg QD), Day 1, individual subjects

## NS(=O)(=O)c1ccc(Nc2ncc3cc4n(c3n2)C2(CCCCC2)C(=O)NN4)cc1 [INX-315]
100 mg QD, C 1 D 1 (Day 1)
  Mean free plasma trough concentration: 2.98 (6) ng/mL and 2.98 ng/mL
100 mg QD, C 1 D 7 (Day 7)
  Mean free plasma trough concentration: 5.7 (6) ng/mL and 5.71 ng/mL
100 mg QD, C 1 D 14
  Mean free plasma trough concentration: 4.72 ng/mL
100 mg QD, C 1 D 15
  Mean free plasma trough concentration: 5.43 ng/mL
100 mg QD, C 1 D 21
  Mean free plasma trough concentration: 4.72 ng/mL
100 mg QD, C 2 D 1
  Mean free plasma trough concentration: 4.32 ng/mL
100 mg QD, C 3 D 1
  Mean free plasma trough concentration: 4.27 ng/mL
100 mg QD, C 4 D 1
  Mean free plasma trough concentration: 5.91 ng/mL
200 mg QD, C 1 D 1 (Day 1)
  Mean free plasma trough concentration: 7.3 (2) ng/mL and 7.31 ng/mL
200 mg QD, C 1 D 7 (Day 7)
  Mean free plasma trough concentration: 10.2 (2) ng/mL and 10.16 ng/mL
[1]
  AUC Plasma: 2532 and 1886 and 3391 and 2271 and 3370 and 640.8
  AUC Whole Blood: 44857 and 38499 and 41732 and 33139 and 60740 and 13440
[2]
  AUC Plasma: 1276 and 5858 and 3444 and 6910 and 1951
  AUC Whole Blood: 37642 and 44316 and 118285 and 31754
Cohort 1, 100 mg QD
  time to steady state trough concentrations: ≤ 7 days
[3]
  AUC Plasma: 4955 and 7528 and 11982 and 19801
  AUC Whole Blood: 132257 and 94340 and 131625
[4]
  AUC Plasma: 6987 and 6286 and 18669 and 13618
  AUC Whole Blood: 94895 and 236613 and 183345 and 112733
[5]
  AUC Plasma: 12111 and 11382 and 8338 and 11173
  AUC Whole Blood: 149733 and 88350 and 116734 and 106858
human, plasma and whole blood, oral, 100 mg, preliminary data of the expanded cohort 1, 100 mg QD, read-out: t1/2 (converted)
  half-life: ≥ 12 h
human, plasma, oral, 100 mg, 100 mg QD (n = 6), 0.5 hr
  concentration at 0.5 h: 18.9 ng/mL
human, plasma, oral, 100 mg, 100 mg QD (n = 6), 1.0 hr
  concentration at 1 h: 71.4 ng/mL
human, plasma, oral, 100 mg, 100 mg QD (n = 6), 2.0 hr
  concentration at 2 h: 158 ng/mL
human, plasma, oral, 100 mg, 100 mg QD (n = 6), 6.0 hr
  concentration at 6 h: 132 ng/mL
human, plasma, oral, 100 mg, 100 mg QD (n = 6), 8.0 hr
  concentration at 8 h: 121 ng/mL
human, plasma, oral, 100 mg, 100 mg QD (n = 6), […], read-out: Mean plasma concentration
  concentration at 24 h: 57.4 ng/mL
human, plasma, oral, 100 mg, plasma, 100 mg QD (n = 6), read-out: Total Area (AUC)
  AUC: 2400 ng·h/mL
human, plasma, oral, 100 mg, plasma, 100 mg QD, Day 1 (Example 10), read-out: Cmax
  Cmax: 148 ng/mL
human, plasma, oral, 100 mg, plasma, 100 mg QD, Day 1, Cohort 1 (Table 27), read-out: AUClast, geometric mean
  AUC(0-t): 2640 ng·h/mL
human, plasma, oral, 100 mg, plasma, 100 mg QD, Day 1, Cohort 1 (Table 27), read-out: Cmax, geometric mean
  Cmax: 193 ng/mL
human, plasma, oral, 100 mg, plasma, 100 mg QD, Day 1, Cohort 1 (Table 27), read-out: Tmax, median
  Tmax: 2 h
human, plasma, oral, 100 mg, plasma, 100 mg QD, Day 1, Cohort 1 (Table 27), read-out: t1/2, geometric mean (converted)
  half-life: 12.6 h
human, plasma, oral, 100 mg, plasma, 100 mg QD, Day 1, average of five human patients (Example 10), read-out: AUC
  AUC: 2020 ng·h/mL
human, plasma, oral, 100 mg, plasma, 100 mg QD, Day 1, individual patients, read-out: AUClast
  AUC(0-t): 3490 ng·h/mL
human, plasma, oral, 100 mg, plasma, 100 mg QD, Day 1, individual patients, read-out: t1/2 (converted)
  half-life: 15.1 h
human, plasma, oral, 100 mg, plasma, 100 mg QD, Day 1 observed, mean of first two patients, read-out: AUC
  AUC: 3450 ng·h/mL
human, plasma, oral, 100 mg, plasma, 100 mg QD, Day 1 observed, mean of first two patients, read-out: Cmax
  Cmax: 196 ng/mL
human, plasma, oral, 100 mg, plasma, 100 mg QD, Day 1 observed, mean of first two patients, read-out: Cmin
  concentration at 1 day: 103 ng/mL
human, plasma, oral, 100 mg, plasma, 100 mg QD, Day 1 observed, mean of first two patients, read-out: Cmin^free
  concentration at 1 day: 5.4 ng/mL
human, plasma, oral, 100 mg, plasma, 100 mg QD, Day 15 (Example 10), read-out: AUC
  AUC: 3290 ng·h/mL
human, plasma, oral, 100 mg, plasma, 100 mg QD, Day 15 (Example 10), read-out: Cmax
  Cmax: 211 ng/mL
human, plasma, oral, 100 mg, plasma, 100 mg QD, Day 15, individual patients, read-out: AUClast
  AUC(0-t): 7240 ng·h/mL
human, plasma, oral, 100 mg, plasma, 100 mg QD, Day 15, individual patients, read-out: Cmax
  Cmax: 457 ng/mL
human, plasma, oral, 100 mg, plasma, 100 mg QD, Day 15, individual patients, read-out: t1/2 (converted)
  half-life: 17 h
human, plasma, oral, 100 mg, plasma, 100 mg QD, Day 15 observed, mean of first two patients, read-out: AUC
  AUC: 6580 ng·h/mL
human, plasma, oral, 100 mg, plasma, 100 mg QD, Day 15 observed, mean of first two patients, read-out: Cmax
  Cmax: 408 ng/mL
human, plasma, oral, 100 mg, plasma, 100 mg QD, Day 15 observed, mean of first two patients, read-out: Cmin
  concentration at 15 day: 177 ng/mL
